Source: patent US5043166A, “Liposome/anthraquinone drug composition and method” (priority 1989, dated 1991)
Read-outs that look alike come from different tables or passages of the source.

What was measured:
[1] = fluorescence of DXR-Fe(III) complex with SUVs (drug modification); assay type: physicochemical; details: in presence of SUVs with saturated and/or unsaturated phospholipids
Excerpt: The studies examined the binding of DXR to ferric iron, both in the presence and absence of small unilamellar vesicles (SUVs) formed from the saturated phospholipid dimyristylphosphatidylcholine (DMPC).
One measure of this modification is a change in the 590/560 nm ratio of the fluorescence spectra, which would result from modification of the antracene ring.

[2] = repeated administration of graded doses of F-DXR and L-DXR; assay type: in vivo, mice; details: mouse, in vivo, iv, 10 mg/kg, read-out: % Surviving; for survival at 1008 h: day 42, 10 mg/kg
Procedure: (§1) L-DXR was prepared as in Example I, to final DXR concentrations of 0.5, 0.75, and 1.0 mg/ml, corresponding to phospholipid concentrations of 8, 12, and 16 μmole/ml, respectively, and cholesterol concentrations of 3.2, 4.8, and 6.4 μmole/ml, respectively. Free DXR (F-DXR) was prepared in sterile, pyrogen-free physiologic saline solution to final concentrations of 0.5, 0.75, and 1 mg/ml.
(§2) Sabra mice were divided into groups of 15 mice. Three different doses of either F-DXR or L-DXR were tested: 5, 7.5, and 10 mg/kg body weight. Each dose level was tested on 15 male and 15 female mice. Treatment was administered as a bolus injection through the tail vein on days 0, 14, 28, 42, 56, 70, 84, and 98 of the experiment. The pulsed injection scheme was used for the purpose of achieving high cumulative doses, prolonging the period of exposure of the animals to the drug, and mimicking the way DXR is usually administered in clinical practice. In view of the toxicity observed after single injection (Example XI), DXR was administered at a maximum 10 mg/kg dosage so that the occurrence of acute toxicity would be reduced or nil. In order to avoid the overlapping myelosuppression of successive treatment, 14 days were allowed between successive injections, based on previous observations that full regeneration of the activity of myeloid centers in the spleen after treatment with 10 mg/kg of DXR occurred between 7-12 days after drug administration.
(§3) During the course of the experiment, mice were inspected daily and survival curves were recorded. Whenever possible, dead mice were autopsied and a limited sample of organs sent for histopathological examination. Blood counts and body weights were checked weekly. The blood counts were done in a Coulter analyzer with a 20 μl sample obtained from the retro-orbital blood sinuses. One-third of the mice of each group were sacrificed on day 42, after 3 injections. A second third was sacrificed on day 84, after 6 injections. The remaining mice were sacrificed on day 180, 82 days after the 8the and last injection. Before sacrifice, the mice were bled under light ether anesthesia to obtain serum for the biochemical tests. The animals were then dissected and the removed organs, after weighing, were fixed in Bouin's solution and processed for light microscopy examination with hematoxylin-eosin-phosphomolybdic acid: light green stain.
(§4) (c) Effects on Body and Organ Weights. […] The weight measurements were made 42, 84, and 180 days after initial drug injection. The body and organ weights are expressed in percent relative to untreated mice. The percent survivors at each of the three time points is indicated at the top in the table; the dashes (-) indicate no survivors.

Sabra mice [3] = assay: as above; assay type: in vivo
Procedure: as §1, §2, §3, §4

[4] = blood biochemistry after repeated administration; assay type: in vivo, mice; details: mouse, in vivo, iv, female, read-out: % Surviving (Table IX)
Procedure: as §2, §3
(§5) d) Effects on Blood Biochemistry Values. Blood levels of glucose, cholesterol, triglycerides, urea, uric acid, creatine, and total protein were measured at 42, 84, and 180 day time points. Blood enzyme levels of alkaline phosphatase, aspartate aminotransferase, and alanine aminotransferase were also assayed at these time points.
(§6) The most important differences in blood chemistry between F-DXR and L-DXR administration occurred in blood glucose, cholesterol, and triglyceride levels. These differences are seen in Table III below, which gives data on female mice receiving 10 mg/kg of either F-DXR or L-DXR. Glucose, cholesterol, and triglyceride levels are expressed as percent control (untreated) animals, and "nm" means "not measured".

Sabra mice [5] = assay: blood biochemistry after repeated administration; assay type: in vivo
Procedure: as §2, §3, §5, §6

human cancer patients [6] = assay: clinical trials with L-DXR in cancer patients; details: in vivo
Procedure: Eight cancer patients have been treated with the L-DXR composition of Example III. The administration of the drug was done using a 120 ml "Voluset" at a concentration of approximately 0.5 mg/ml in isotonic saline and at a rate of 2-3 ml per min. For intraarterial injections, peristaltic pumps were used, with the rate of infusion being ~1.5 ml/min. […] This was done taking advantage of previously implanted pumps. In both patients, the perfusion of the liver with the pump was previously examined with a Tc-99 labeled macroaggregated albumin scan.

human cancer patients [7] = details: cited from earlier work
[8] = liposome form, animals; cited from earlier work
[9] = tested on: myeloid centers in the spleen; details: 10 mg/kg of DXR; cited from earlier work
[10] = cited from earlier work

COc1cccc2c1C(=O)c1c(O)c3c(c(O)c1C2=O)C[C@@](O)(C(=O)CO)C[C@@H]3O[C@H]1C[C@H](N)[C@H](O)[C@H](C)O1 [DXR, doxorubicin]
chemical modification with ferric iron [1]: relatively rapid and irreversible chemical modification
survival at 1008 h ([2]; female): 93%
survival at 2016 h ([2]; female, day 84, 10 mg/kg): 27%
survival at 1008 h ([2]; male): 87%
lower limb weakness (Sabra mice [3]; 10 mg/kg): marked weakness of the lower limbs
organ weights (liver, spleen, kidneys, heart) (Sabra mice [3]; 10 mg/kg): substantial weight reduction
mortality rates, all groups (Sabra mice [3]; 5, 7.5 and 10 mg/kg): Significant mortality rates
white cell count (Sabra mice [3]; 7 and 14 days after each injection): no significant differences between the F-DXR and the L-DXR treated groups
findings in animals dying (Sabra mice [3]; 7.5 and 5 mg/kg): pleural and peritoneal effusions, cardiomegaly, and lung congestion
Body weight, percent relative to untreated mice (Sabra mice [3]; female, day 42, 10 mg/kg): 95%
Heart weight, percent relative to untreated mice (Sabra mice [3]; female, day 42, 10 mg/kg): 97%
Kidneys weight, percent relative to untreated mice (Sabra mice [3]; female, day 42, 10 mg/kg): 78%
Liver weight, percent relative to untreated mice (Sabra mice [3]; female, day 42, 10 mg/kg): 107%
Spleen weight, percent relative to untreated mice (Sabra mice [3]; female, day 42, 10 mg/kg): 78%
Body weight, percent relative to untreated mice (Sabra mice [3]; female, day 84, 10 mg/kg): 84%
Heart weight, percent relative to untreated mice (Sabra mice [3]; female, day 84, 10 mg/kg): 74%
Kidneys weight, percent relative to untreated mice (Sabra mice [3]; female, day 84, 10 mg/kg): 91%
Liver weight, percent relative to untreated mice (Sabra mice [3]; female, day 84, 10 mg/kg): 91%
Spleen weight, percent relative to untreated mice (Sabra mice [3]; female, day 84, 10 mg/kg): 67%
sex difference in toxicity (Sabra mice [3]; high and intermediate dosages): slight trend towards higher toxicity in male as compared to female mice
Body weight, percent relative to untreated mice (Sabra mice [3]; male, day 42, 10 mg/kg): 75%
Heart weight, percent relative to untreated mice (Sabra mice [3]; male, day 42, 10 mg/kg): 82%
Kidneys weight, percent relative to untreated mice (Sabra mice [3]; male, day 42, 10 mg/kg): 76%
Liver weight, percent relative to untreated mice (Sabra mice [3]; male, day 42, 10 mg/kg): 75%
Spleen weight, percent relative to untreated mice (Sabra mice [3]; male, day 42, 10 mg/kg): 71%
survival at 1008 h ([4]; day 42, 10 mg/kg): 93%
survival at 2016 h ([4]; day 84, 10 mg/kg): 27%
blood cholesterol (Sabra mice [5]; 10 mg/kg): hypercholesterolemia
blood glucose (Sabra mice [5]; 10 mg/kg): decreased blood glucose
blood triglyceride (Sabra mice [5]; 10 mg/kg): hyperglyceridemia
creatine levels (Sabra mice [5]; 7.5 and 5 mg/kg, 180 days): increased creatine levels
alanine aminotransferase (Sabra mice [5]; 180 days): a drop in alanine aminotransferase
Cholesterol, percent control (untreated) (Sabra mice [5]; female, day 42, 10 mg/kg): 300 percent control
Glucose, percent control (untreated) (Sabra mice [5]; female, day 42, 10 mg/kg): 97 percent control
Cholesterol, percent control (untreated) (Sabra mice [5]; female, day 84, 10 mg/kg): 383 percent control
Glucose, percent control (untreated) (Sabra mice [5]; female, day 84, 10 mg/kg): 57 percent control
Triglyceride, percent control (untreated) (Sabra mice [5]; female, day 84, 10 mg/kg): 416 percent control
liver enzymes (alkaline phosphatase and aminotransferases) (Sabra mice [5]; mouse, in vivo): Increased liver enzymes
fever (human cancer patients [6]): fever was a constant feature
previous treatment outcome (human cancer patients [7]; patient 5, hepatoma): Previous failure
previous treatment outcome (human cancer patients [7]; patient 8, hepatoma): failure
toxicity as judged by reduced mortality [8]: significantly less toxic, as judged by reduced mortality
full regeneration of myeloid centers in the spleen [9]: 7 to 12 days
cardiac toxicity on repeated administration ([10]; repeated administration): cumulative and irreversible cardiac damage
acute toxicity ([10]; soluble form): malaise, nausea, vomiting myelosuppression, and severe alopecia
